Data from patent US7829063B2, “Development of molecular imaging probes for carbonic anhydrase-IX using click chemistry” (Siemens Medical Solutions USA, Inc., priority 2007, dated 2010).

Legend:
CA-IX [1] = molecular target: T1, CA-IX (Homo sapiens, UniProt Q16790); assay: CA-IX combinatorial library screening, competitive fluorescence-based assay with dansylamide (DNSA); type: binding; conditions: Table 1, Libraries 1-3; sample concentrations 100 nM and 1000 nM, DNSA 200 μM; screening at 1 μM
T1 construct: His tag (C); purchased R&D Systems Inc. 2188-CA; host or cells: mouse myeloma cell line NS0
In short: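 Recombinant His-tagged CA-IX (NS0-expressed) in phosphate buffer pH 7.4 with test compound at 100 nM or 1000 nM; competitive displacement started with 200 μM dansylamide (stock concentration). After 1 h at 25 °C, fluorescence read at 460 nm (excitation 290 nm).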

CA-IX [2] = molecular target: T1, CA-IX; assay: Binding affinity (Kd) determination for CA-IX inhibitors, DNSA fluorescence competition assay, Scatchard plots; conditions: Table 3
Experimental: General. […] The human red blood cells were obtained from Research Blood Components, LLC. All absorbance measurements were performed on a SPECTRA MAX M2 plate reader at 25° C. The LC/MS analyses were performed on an Agilent 1100 series LC/MSD (SL) using a 30×2.1 mm Zorbax C8 column with a Phenomenex C18 pre-column. Compound detection was accomplished by electrospray mass spectroscopy in positive selected ion mode (LC/MS-SIM). The elution solvents were acetonitrile and water, contained 0.05% TFA. Nuclear magnetic resonance (NMR) spectra were obtained on a Bruker AMX 300 MHz spectrometer or a Varian 400. 19F NMR spectra were recorded on a Bruker AMX 282.35 MHz or a Varian 400 spectrometer. The mass spectra were recorded on an Agilent 1100 series LC/MSD with electrospray mass spectroscopic detection. Flash column chromatography was performed on Merck silica gel (40-63 μm) using the solvent system indicated. The radiochemical and chemical purities were analyzed by RP-HPLC.
General Procedure of Binding Affinity (Ka) Determination for CA-IX Inhibitors
The assay was based on the observation that the only fluorescence signal detected at 460 nm upon excitation at 290 nm, an absorption […] for DNSA, was that of the DNSA.CA complex. […] The latter were developed for each test compound using mass balance for calculating the concentration of CA bound to DNSA [DNSA.CA], bound to the non-fluorescent sample [CA.Inh] and free CA [CA] in solution. The Kd values were determined from Scatchard plots using the equation below as described by Whitesides et al. [CA.Inh]/[CA]tot.[Inh]=K11^inh−K11^inh{[CA.Inh]+[CA.DNSA]}/([CA]tot)
The terms [CA.DNSA], [CA.Inh], and free CA were calculated using the mass balance based on the known values for the dissociation constant of CA.DNSA and the total concentration of CA in each reaction.

| Structure (SMILES) | In Vitro Binding Assay (Library Screening) (CA-IX [1]) | Kd (CA-IX [2]) |
| --- | --- | --- |
| CC(C)[C@H](C(=O)NCc1ccco1)n1cc(-c2ccc(S(N)(=O)=O)cc2)nn1 (stereo in doubt) [DHK25] | √ √ | 5 nM |
| COCCOCCOCCOCCC(=O)NCCOc1cccc(CSC[C@@H](NC(=O)Cn2cc(COc3ccc4nc(S(N)(=O)=O)sc4c3)nn2)C(=O)O)c1 [DHK3-48] |  | 10 nM |
| NCCOc1cccc(COCC(NC(=O)Cn2cc(COc3ccc4nc(S(N)(=O)=O)sc4c3)nn2)C(=O)O)c1 (stereo not shown) [DHK3-149] |  | 10 nM |
| NS(=O)(=O)c1nc2ccc(OCc3cn(CC(=O)NC(COCc4cccc(OCCNC(=O)CCC(=O)O)c4)C(=O)O)nn3)cc2s1 (stereo not shown) [DHK3-154] |  | 25 nM |
| NCC1OC(C(=O)NCCOc2cccc(COCC(NC(=O)Cn3cc(COc4ccc5nc(S(N)(=O)=O)sc5c4)nn3)C(=O)O)c2)C(O)C(O)C1O (stereo not shown) [DHK3-155] |  | 11 nM |
| C[N+](C)(C)C[C@H](O)CC(=O)NCCOc1cccc(COCC(NC(=O)Cn2cc(COc3ccc4nc(S(N)(=O)=O)sc4c3)nn2)C(=O)O)c1 (stereo partly shown) [DHK3-156] |  | 10 nM |
| NS(=O)(=O)c1nc2ccc(OCc3cn(CC(=O)NC(COCc4cccc(OCCNC(=O)CN(CCO)CCO)c4)C(=O)O)nn3)cc2s1 (stereo not shown) [DHK3-158] |  | 14 nM |
| Cc1ccnc(NC(=O)[C@H](Cc2ccccc2)n2cc(-c3ccc(S(N)(=O)=O)cc3)nn2)c1 [DHK7] | √ | 17 nM |
| NS(=O)(=O)c1ccc(-c2cn(Cn3c(=S)sc4ccccc43)nn2)cc1 [DHK19] | √ | 14 nM |
| NS(=O)(=O)c1ccc(-c2cn(Cn3nnc4ccccc43)nn2)cc1 [DHK29] | √ | 20 nM |
| COC(=O)[C@H](CSCc1ccccc1)NC(=O)Cn1cc(COc2ccc3nc(S(N)(=O)=O)sc3c2)nn1 [DHK113] | √ √ | 10 nM |
| CC(C)C(C(=O)NCc1cc(F)ccc1F)n1cc(COc2ccc3nc(S(N)(=O)=O)sc3c2)nn1 (stereo not shown) [DHK117] | √ | 14.1 nM |
| NS(=O)(=O)c1nc2ccc(OCc3cn(Cc4cccc(Br)c4)nn3)cc2s1 [DHK121] | √ | 25 nM |
| Cc1ccc(CNC(=O)[C@H](C(C)C)n2cc(COc3ccc4nc(S(N)(=O)=O)sc4c3)nn2)cc1F [DHK123] | √ | 12.5 nM |
| CCOC(=O)c1ccc(Cn2cc(COc3ccc4nc(S(N)(=O)=O)sc4c3)nn2)cc1 [DHK125] | √ | 16.7 nM |
| CC(C)[C@@H](C(=O)NCc1ccco1)n1cc(COc2ccc3nc(S(N)(=O)=O)sc3c2)nn1 [DHK127] | √ | 25 nM |

| Structure (SMILES) | In Vitro Binding Assay (Library Screening) (CA-IX [1]) | Kd (CA-IX [2]) |
| --- | --- | --- |
| NS(=O)(=O)c1nc2ccc(OCc3cn(Cn4nnc5ccccc54)nn3)cc2s1 [DHK128] | √ | 12.5 nM |
| NS(=O)(=O)c1nc2ccc(OCc3cn(Cc4ccc(C(=O)O)cc4)nn3)cc2s1 [DHK159] |  | 14.1 nM |
| Cc1cc[n+](C)c(NC(=O)[C@H](Cc2ccccc2)n2cc(-c3ccc(S(N)(=O)=O)cc3)nn2)c1 [DHK160] |  | 20 nM |
| NS(=O)(=O)c1nc2ccc(OCc3cn(CC(=O)N[C@@H](CSCc4ccccc4)C(=O)O)nn3)cc2s1 [DHK161] |  | 10 nM |
| NS(=O)(=O)c1nc2ccc(OCc3cn(CC(=O)N[C@@H](Cc4ccc(OCCF)cc4)C(=O)O)nn3)cc2s1 [UG3150, (S)-3-(4-(2-fluoroethoxy)phenyl)-2-(2-(4-((2-sulfamoylbenzo[d]thiazol-6-yloxy)methyl)-1H-1,2,3-triazol-1-yl)acetamido)propanoic acid] |  | 3.3 nM |
| NS(=O)(=O)c1nc2cc(OCc3cn(CC(=O)N[C@@H](CSCc4cccc(OCCF)c4)C(=O)O)nn3)ccc2s1 [VM2-41] |  | 5 nM |
| COC(=O)[C@@H](CSCc1cccc(O)c1)NC(=O)[C@H](CCO)n1cc(COc2ccc3nc(S(N)(=O)=O)sc3c2)nn1 [VM2-93] |  | 10 nM |
| COC(=O)[C@@H](CSCc1cccc(OCCF)c1)NC(=O)[C@H](CCO)n1cc(COc2ccc3nc(S(N)(=O)=O)sc3c2)nn1 [VM2-106, (S)-methyl 3-(3-(2-fluoroethoxy)benzylthio)-2-(S)-4-hydroxy-2-(4-((2-sulfamoylbenzo[d]thiazol-6-yloxy)methyl)-1H-1,2,3-triazol-1-yl)butanamido) propanoate] |  | 5 nM |
| COC(=O)[C@H](C[S+]([O-])Cc1cccc(OCCF)c1)NC(=O)Cn1cc(COc2ccc3sc(S(N)(=O)=O)nc3c2)nn1 (stereo partly drawn) [VM2-126, ((2S)-methyl 3-(3-(2-fluoroethoxy)benzylsulfinyl)-2-(2-(4-((2-sulfamoylbenzo[d]thiazol-6-yloxy)methyl)-1H-1,2,3-triazol-1-yl)acetamido) propanoate] |  | 10 nM |
| N[C@@H](CO)C(=O)NCCOc1cccc(COC[C@H](NC(=O)Cn2cc(COc3ccc4nc(S(N)(=O)=O)sc4c3)nn2)C(=O)O)c1 [VM3-163, (S)-3-(3-(2-((S)-2-amino-3-hydroxypropanamido)ethoxy)benzyloxy)-2-(2-(4-((2-sulfamoylbenzo[d]thiazol-6-yloxy)methyl)-1H-1,2,3-triazol-1-yl)acetamido)propanoic acid] |  | 10 nM |
| NS(=O)(=O)c1nc2ccc(OCc3cn(CC(=O)N[C@@H](Cc4ccc(OCCO)cc4)C(=O)O)nn3)cc2s1 [VM4009, (S)-3-(4-(2-hydroxyethoxy)phenyl)-2-(2-(4-((2-sulfamoylbenzo[d]thiazol-6-yloxy)methyl)-1H-1,2,3-triazol-1-yl)acetamido)propanoic acid] |  | 5 nM |
| CC(C)[C@@H](C(=O)N[C@@H](Cc1ccc(OCCO)cc1)C(=O)O)n1cc(COc2ccc3nc(S(N)(=O)=O)sc3c2)nn1 [VM4021, (S)-3-(4-(2-hydroxyethoxy)phenyl)-2-((S)-3-methyl-2-(4-((2-sulfamoylbenzo[d]thiazol-6-yloxy)methyl)-1H-1,2,3-triazol-1-yl)butanamido)propanoic acid] |  | 3.3 nM |
| CC(C)[C@@H](C(=O)N[C@@H](Cc1ccc(OCCF)cc1)C(=O)O)n1cc(COc2ccc3nc(S(N)(=O)=O)sc3c2)nn1 [VM4037a, (S)-3-(4-(2-fluoroethoxy)phenyl)-2-((S)-3-methyl-2-(4-((2-sulfamoylbenzo[d]thiazol-6-yloxy)methyl)-1H-1,2,3-triazol-1-yl)butanamido) propanoic acid] |  | 1.3 nM |
| CC(C)[C@H](C(=O)N[C@@H](Cc1ccc(OCCF)cc1)C(=O)O)n1cc(COc2ccc3nc(S(N)(=O)=O)sc3c2)nn1 [VM4037b] |  | 5 nM |
| NS(=O)(=O)c1nc2ccc(OCc3cn(CC(=O)N[C@@H](Cc4ccc(OCC(O)CF)cc4)C(=O)O)nn3)cc2s1 (stereo partly drawn) [VM4041, (S)-3-(4-(3-fluoro-2-hydroxypropoxy)phenyl)-2-(2-(4-((2-sulfamoylbenzo[d]thiazol-6-yloxy)methyl)-1H-1,2,3-triazol-1-yl)acetamido)propanoic acid] |  | 5 nM |
| NS(=O)(=O)c1nc2cc(OCc3cn(CC(=O)NCCCOCCOCCOCCCNC(=O)c4ccc(C(=O)O)c(-c5c6ccc(=O)cc-6oc6cc(O)ccc56)c4)nn3)ccc2s1 [WZ01101] |  | 14 nM |
